For 23 molecules, IC50 results are on record in patent US9771369B2, “Compounds and methods for kinase modulation, and indications therefor” (Plexxikon Inc., priority 2014, dated 2017).

One experiment has as its target c-Kit kinase (Homo sapiens (Human), UniProt P10721). Briefly: c-Kit biochemical assay (AlphaScreen kinase activity). In short, it runs like this:
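AlphaScreen: c-Kit phosphorylates biotin-(E4Y)3 (100 nM) at 10 μM ATP, pH 7.2 HEPES buffer with Mg/Mn, 5% DMSO, 1 h room temperature; streptavidin donor and PY30 acceptor beads detect product. Second format: 100 μM ATP, 30 nM biotin-(E4Y)10, pH 7.5. IC50 from 8-point 1:3 dilution curves.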

Experiment [1] relates to BaF3-FL KIT D816V or BaF3-FL KIT V560G/D816V cell line. Kind of experiment: Cell-based assays of c-Kit mutant kinase activity (cell proliferation, ATPlite). The following applies: at least one of the c-kit cell assays of Example 7. In short, it runs like this: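 BaF3 cells dependent on transfected full-length human KIT D816V or V560G/D816V (pCI-Neo, CMV promoter) were seeded at 1×10^4 cells/well and exposed to 8-point 1:3 dilutions from 10 μM top (0.2% DMSO) for three days at 37° C. ATPlite luminescence gave cell number; IC50 from concentration-response.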

Sequence of c-Kit kinase (P10721 26-976): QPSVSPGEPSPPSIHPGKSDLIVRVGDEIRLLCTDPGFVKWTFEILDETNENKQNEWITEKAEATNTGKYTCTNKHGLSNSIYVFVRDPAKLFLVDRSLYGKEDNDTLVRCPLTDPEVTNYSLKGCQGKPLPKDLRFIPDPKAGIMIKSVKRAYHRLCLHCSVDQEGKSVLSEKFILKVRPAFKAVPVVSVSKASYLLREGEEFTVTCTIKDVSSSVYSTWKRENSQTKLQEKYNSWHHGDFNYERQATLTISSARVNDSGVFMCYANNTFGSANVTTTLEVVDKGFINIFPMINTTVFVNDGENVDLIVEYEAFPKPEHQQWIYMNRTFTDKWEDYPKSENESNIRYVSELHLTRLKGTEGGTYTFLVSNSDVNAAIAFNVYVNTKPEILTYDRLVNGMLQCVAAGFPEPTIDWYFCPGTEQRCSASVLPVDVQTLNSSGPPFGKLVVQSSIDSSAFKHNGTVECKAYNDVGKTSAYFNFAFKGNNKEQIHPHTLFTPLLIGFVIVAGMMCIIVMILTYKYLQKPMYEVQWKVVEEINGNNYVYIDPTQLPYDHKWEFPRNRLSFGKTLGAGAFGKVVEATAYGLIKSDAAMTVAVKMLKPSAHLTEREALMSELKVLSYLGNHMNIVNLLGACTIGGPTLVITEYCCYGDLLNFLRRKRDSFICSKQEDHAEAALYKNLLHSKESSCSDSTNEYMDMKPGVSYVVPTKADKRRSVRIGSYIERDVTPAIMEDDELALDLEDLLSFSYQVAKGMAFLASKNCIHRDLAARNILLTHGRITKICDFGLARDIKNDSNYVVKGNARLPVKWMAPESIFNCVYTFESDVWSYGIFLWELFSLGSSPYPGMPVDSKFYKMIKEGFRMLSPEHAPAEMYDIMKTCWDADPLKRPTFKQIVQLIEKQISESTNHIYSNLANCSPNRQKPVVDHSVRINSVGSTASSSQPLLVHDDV

Regarding `Cc1nc(C2(C)CCN(c3ncnc4[nH]nc(C)c34)CC2)[nH]c1-c1cccc(OC(F)F)c1` [P-3201, 4-[4-[5-[3-(difluoromethoxy)phenyl]-4-methyl-1H-imidazol-2-yl]-4-methyl-1-piperidyl]-3-methyl-1H-pyrazolo[3,4-d]pyrimidine], the values for the IC50 (on c-Kit kinase; in experiment [1]) were 1 to 10 µM and less than 10000 nM, respectively.

Regarding `COc1ccc(-c2[nH]c(C3(C)CCN(c4ncnc5[nH]nc(C)c45)CC3)nc2C)cc1F` [P-3202, 4-[4-[5-(3-fluoro-4-methoxy-phenyl)-4-methyl-1H-imidazol-2-yl]-4-methyl-1-piperidyl]-3-methyl-1H-pyrazolo[3,4-d]pyrimidine], the IC50 was 1 to 10 µM on c-Kit kinase and less than 10000 nM in experiment [1].

Turning to `Cc1nc(C2(C)CCN(c3ncnc4[nH]nc(C)c34)CC2)[nH]c1-c1ccc2c(c1)OC(F)(F)O2` [P-3203, 4-[4-[5-(2,2-difluoro-1,3-benzodioxol-5-yl)-4-methyl-1H-imidazol-2-yl]-4-methyl-1-piperidyl]-3-methyl-1H-pyrazolo[3,4-d]pyrimidine], the IC50 at c-Kit kinase was 1 to 10 µM; in experiment [1], less than 10000 nM.

For the molecule `Fc1ccc(-c2cc3c(N4CCC(c5nnc(-c6ccc(F)cc6)[nH]5)CC4)ncnc3[nH]2)cc1` [P-3206, 6-(4-fluorophenyl)-4-[4-[5-(4-fluorophenyl)-4H-1,2,4-triazol-3-yl]-1-piperidyl]-7H-pyrrolo[2,3-d]pyrimidine], the results for the IC50 (against c-Kit kinase; in experiment [1]) were 1 to 10 µM and less than 10000 nM, respectively.

Take `COc1cc(-c2cc3c(N4CCC(c5nnc(-c6cccc(OC(F)F)c6)[nH]5)CC4)ncnc3[nH]2)ccn1` [P-3207, 4-[4-[5-[3-(difluoromethoxy)phenyl]-4H-1,2,4-triazol-3-yl]-1-piperidyl]-6-(2-methoxy-4-pyridyl)-7H-pyrrolo[2,3-d]pyrimidine]: the IC50 was 1 to 10 µM at c-Kit kinase and less than 10000 nM in experiment [1].

For the molecule `CCOc1ccc(-c2[nH]c(C3(C)CCN(c4ncnc5[nH]c(-c6ccc(OC)nc6)cc45)CC3)nc2C)cc1F` [P-3209, 4-[4-[5-(4-ethoxy-3-fluoro-phenyl)-4-methyl-1H-imidazol-2-yl]-4-methyl-1-piperidyl]-6-(6-methoxy-3-pyridyl)-7H-pyrrolo[2,3-d]pyrimidine], the IC50 at c-Kit kinase was 0.0001 to 1 µM; in experiment [1], less than 10000 nM.

With `CCOc1ccc(-c2[nH]c(C3(C)CCN(c4ncnc5[nH]c(-c6cnn(C(F)F)c6)cc45)CC3)nc2C)cc1F` [P-3210, 6-[1-(difluoromethyl)pyrazol-4-yl]-4-[4-[5-(4-ethoxy-3-fluoro-phenyl)-4-methyl-1H-imidazol-2-yl]-4-methyl-1-piperidyl]-7H-pyrrolo[2,3-d]pyrimidine], the results for the IC50 (against c-Kit kinase; in experiment [1]) were 0.0001 to 1 µM and less than 10000 nM, respectively.

For the molecule `COc1ccc(-c2[nH]c(C3(C)CCN(c4ncnc5[nH]c(-c6ccc(C#N)nc6)cc45)CC3)nc2C)cc1F` [P-3211, 5-[4-[4-[5-(3-fluoro-4-methoxy-phenyl)-4-methyl-1H-imidazol-2-yl]-4-methyl-1-piperidyl]-7H-pyrrolo[2,3-d]pyrimidin-6-yl]pyridine-2-carbonitrile], the figures for the IC50 (against c-Kit kinase; in experiment [1]) were 1 to 10 µM and less than 10000 nM, respectively.

As for `COc1ccc(-c2[nH]c(C3(C)CCN(c4ncnc5[nH]c(-c6ccc(C(N)=O)cc6)cc45)CC3)nc2C)cc1F` [P-3212, 4-[4-[4-[5-(3-fluoro-4-methoxy-phenyl)-4-methyl-1H-imidazol-2-yl]-4-methyl-1-piperidyl]-7H-pyrrolo[2,3-d]pyrimidin-6-yl]benzamide], the IC50 on c-Kit kinase is 0.0001 to 1 µM; in experiment [1], less than 10000 nM.

Turning to `COc1ccc(-c2[nH]c(C3(C)CCN(c4ncnc5[nH]c(-c6ccc(NS(C)(=O)=O)cc6)cc45)CC3)nc2C)cc1F` [P-3213, N-[4-[4-[4-[5-(3-fluoro-4-methoxy-phenyl)-4-methyl-1H-imidazol-2-yl]-4-methyl-1-piperidyl]-7H-pyrrolo[2,3-d]pyrimidin-6-yl]phenyl]methanesulfonamide], the IC50 is 0.0001 to 1 µM against c-Kit kinase and less than 10000 nM in experiment [1].

As to `COc1ccc(-c2[nH]c(C3(C)CCN(c4ncnc5[nH]c(-c6ccc(OCC(=O)O)cc6)cc45)CC3)nc2C)cc1F` [P-3214, 2-[4-[4-[4-[5-(3-fluoro-4-methoxy-phenyl)-4-methyl-1H-imidazol-2-yl]-4-methyl-1-piperidyl]-7H-pyrrolo[2,3-d]pyrimidin-6-yl]phenoxy]acetic acid], the IC50 on c-Kit kinase was 0.0001 to 1 µM; in experiment [1], less than 10000 nM.

As for `COc1ccc(-c2[nH]c(C3(C)CCN(c4ncnc5[nH]c(-c6ccc(N7CCOCC7)nc6)cc45)CC3)nc2C)cc1F` [P-3215, 4-[5-[4-[4-[5-(3-fluoro-4-methoxy-phenyl)-4-methyl-1H-imidazol-2-yl]-4-methyl-1-piperidyl]-7H-pyrrolo[2,3-d]pyrimidin-6-yl]-2-pyridyl]morpholine], the IC50 against c-Kit kinase was 0.0001 to 1 µM; in experiment [1] it was less than 10000 nM.

Take `COc1ccc(-c2[nH]c(C3(C)CCN(c4ncnc5[nH]c(-c6ccc(C(N)=O)cc6)cc45)CC3)nc2C)cc1C` [P-3216, 4-[4-[4-[5-(4-methoxy-3-methyl-phenyl)-4-methyl-1H-imidazol-2-yl]-4-methyl-1-piperidyl]-7H-pyrrolo[2,3-d]pyrimidin-6-yl]benzamide]: the half-inhibitory concentration (IC50) against c-Kit kinase was 0.0001 to 1 µM; in experiment [1] it was less than 10000 nM.

As to `COc1ccc(-c2[nH]c(C3(C)CCN(c4ncnc5[nH]c(-c6ccc(OCC(=O)O)cc6)cc45)CC3)nc2C)cc1C` [P-3217, 2-[4-[4-[4-[5-(4-methoxy-3-methyl-phenyl)-4-methyl-1H-imidazol-2-yl]-4-methyl-1-piperidyl]-7H-pyrrolo[2,3-d]pyrimidin-6-yl]phenoxy]acetic acid], the IC50 was 0.0001 to 1 µM on c-Kit kinase and less than 10000 nM in experiment [1].

In the case of `CNC(=O)c1ccc(-c2cc3c(N4CCC(C)(c5nc(C)c(-c6ccc(OC)c(C)c6)[nH]5)CC4)ncnc3[nH]2)cn1` [P-3218, 5-[4-[4-[5-(4-methoxy-3-methyl-phenyl)-4-methyl-1H-imidazol-2-yl]-4-methyl-1-piperidyl]-7H-pyrrolo[2,3-d]pyrimidin-6-yl]-N-methyl-pyridine-2-carboxamide], the IC50 is 0.0001 to 1 µM on c-Kit kinase and less than 10000 nM in experiment [1].

In the case of `COc1ccc(-c2[nH]c(C3(C)CCN(c4ncnc5[nH]c(-c6ccc(N7CCOCC7)nc6)cc45)CC3)nc2C)cc1C` [P-3219, 4-[5-[4-[4-[5-(4-methoxy-3-methyl-phenyl)-4-methyl-1H-imidazol-2-yl]-4-methyl-1-piperidyl]-7H-pyrrolo[2,3-d]pyrimidin-6-yl]-2-pyridyl]morpholine], the values for the IC50 (on c-Kit kinase; in experiment [1]) were 0.0001 to 1 µM and less than 10000 nM, respectively.

As to `CNC(=O)c1ccc(-c2cc3c(N4CCC(C)(c5nc(C)c(-c6ccc(OC)c(F)c6)[nH]5)CC4)ncnc3[nH]2)cn1` [P-3220, 5-[4-[4-[5-(3-fluoro-4-methoxy-phenyl)-4-methyl-1H-imidazol-2-yl]-4-methyl-1-piperidyl]-7H-pyrrolo[2,3-d]pyrimidin-6-yl]-N-methyl-pyridine-2-carboxamide], the IC50 is 0.0001 to 1 µM against c-Kit kinase and less than 10000 nM in experiment [1].

As to `COc1cccc(-c2[nH]c(C3(C)CCN(c4ncnc5[nH]c(-c6ccc(OCC(=O)O)cc6)cc45)CC3)nc2C)c1` [P-3221, 2-[4-[4-[4-[5-(3-methoxyphenyl)-4-methyl-1H-imidazol-2-yl]-4-methyl-1-piperidyl]-7H-pyrrolo[2,3-d]pyrimidin-6-yl]phenoxy]acetic acid], the IC50 against c-Kit kinase is 0.0001 to 1 µM; in experiment [1], less than 10000 nM.

On to `CNC(=O)c1ccc(-c2cc3c(N4CCC(C)(c5nc(C)c(-c6cccc(OC)c6)[nH]5)CC4)ncnc3[nH]2)cn1` [P-3222, 5-[4-[4-[5-(3-methoxyphenyl)-4-methyl-1H-imidazol-2-yl]-4-methyl-1-piperidyl]-7H-pyrrolo[2,3-d]pyrimidin-6-yl]-N-methyl-pyridine-2-carboxamide], for which the IC50 against c-Kit kinase was 0.0001 to 1 µM; in experiment [1], less than 10000 nM.

Turning to `COc1cccc(-c2[nH]c(C3(C)CCN(c4ncnc5[nH]c(-c6ccc(N7CCOCC7)nc6)cc45)CC3)nc2C)c1` [P-3223, 4-[5-[4-[4-[5-(3-methoxyphenyl)-4-methyl-1H-imidazol-2-yl]-4-methyl-1-piperidyl]-7H-pyrrolo[2,3-d]pyrimidin-6-yl]-2-pyridyl]morpholine], the IC50 on c-Kit kinase is 0.0001 to 1 µM; in experiment [1], less than 10000 nM.

For the molecule `CCOc1ccc(-c2[nH]c(C3(C)CCN(c4ncnc5[nH]c(-c6ccc(OCC(=O)O)cc6)cc45)CC3)nc2C)cc1` [P-3224, 2-[4-[4-[4-[5-(4-ethoxyphenyl)-4-methyl-1H-imidazol-2-yl]-4-methyl-1-piperidyl]-7H-pyrrolo[2,3-d]pyrimidin-6-yl]phenoxy]acetic acid], the IC50 on c-Kit kinase is 0.0001 to 1 µM; in experiment [1], less than 10000 nM.

In the case of `COc1cccc(-c2[nH]c(C3(C)CCN(c4ncnc5[nH]c(-c6ccc(C(N)=O)cc6)cc45)CC3)nc2C)c1` [P-3225, 4-[4-[4-[5-(3-methoxyphenyl)-4-methyl-1H-imidazol-2-yl]-4-methyl-1-piperidyl]-7H-pyrrolo[2,3-d]pyrimidin-6-yl]benzamide], the figures for the IC50 (against c-Kit kinase; in experiment [1]) were 0.0001 to 1 µM and less than 10000 nM, respectively.

`CCOc1ccc(-c2[nH]c(C3(C)CCN(c4ncnc5[nH]c(-c6ccc(C(=O)NC)nc6)cc45)CC3)nc2C)cc1` [P-3226, 5-[4-[4-[5-(4-ethoxyphenyl)-4-methyl-1H-imidazol-2-yl]-4-methyl-1-piperidyl]-7H-pyrrolo[2,3-d]pyrimidin-6-yl]-N-methyl-pyridine-2-carboxamide]: the IC50 against c-Kit kinase is 0.0001 to 1 µM; in experiment [1] it was less than 10000 nM.

One may read the IC50 as the concentration needed to halve the response being measured. A lower IC50 goes with greater potency.
